From patent US10696675B2, “Imidazopyridopyrimidine derivative compound and use thereof” (HANMI PHARMACEUTICAL CO., LTD., priority 2016, dated 2020)
Blank lines part the entries; values can stand above or below the molecule they belong to.

Experiments:
FGFR4 = FGFR4 (Homo sapiens, UniProt P22455); experiment: Activity inhibition for FGFR4 kinase (Z′-LYTE biochemical assay, Invitrogen SelectScreen); details: ATP concentration based on Km
Method: (§1) For the synthesized compounds, inhibitory activity for FGFR1, 2, 3, 4 kinase was measured. Activity measurement was carried out by requesting to SelectScreen® Biochemical Kinase Profiling Service of Invitrogen. A Z′-LYTE® biochemical assay method was used, and the ATP concentration was set based on the Km value.

FGFR1 = FGFR1 (Homo sapiens, UniProt P11362); experiment: Activity inhibition for FGFR1 kinase (Z′-LYTE biochemical assay, Invitrogen SelectScreen); details: ATP concentration based on Km
Chain of FGFR1 (P11362 22-822): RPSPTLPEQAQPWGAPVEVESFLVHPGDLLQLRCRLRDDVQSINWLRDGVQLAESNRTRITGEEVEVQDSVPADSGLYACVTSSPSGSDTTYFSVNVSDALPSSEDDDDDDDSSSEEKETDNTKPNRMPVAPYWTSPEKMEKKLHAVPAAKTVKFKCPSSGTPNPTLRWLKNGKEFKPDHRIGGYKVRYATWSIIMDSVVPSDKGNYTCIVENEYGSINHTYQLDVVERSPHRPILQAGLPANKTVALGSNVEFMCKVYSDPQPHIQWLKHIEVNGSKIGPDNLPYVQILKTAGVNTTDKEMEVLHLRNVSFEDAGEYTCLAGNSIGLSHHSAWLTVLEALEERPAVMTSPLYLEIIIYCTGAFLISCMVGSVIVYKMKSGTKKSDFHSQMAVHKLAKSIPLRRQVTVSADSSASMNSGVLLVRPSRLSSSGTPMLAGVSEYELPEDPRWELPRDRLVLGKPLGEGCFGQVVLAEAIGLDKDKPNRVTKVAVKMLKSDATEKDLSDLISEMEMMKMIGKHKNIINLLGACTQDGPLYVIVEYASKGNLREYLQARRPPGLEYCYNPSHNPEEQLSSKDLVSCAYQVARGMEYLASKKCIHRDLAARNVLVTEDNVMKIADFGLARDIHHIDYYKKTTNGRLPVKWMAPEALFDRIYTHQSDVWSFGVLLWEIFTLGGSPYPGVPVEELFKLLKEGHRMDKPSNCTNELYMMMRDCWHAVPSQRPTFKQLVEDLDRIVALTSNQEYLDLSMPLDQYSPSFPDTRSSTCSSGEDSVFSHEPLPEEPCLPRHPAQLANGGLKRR
Method: as §1

HUH7 cells = experiment: Proliferation inhibitory effect for HUH7 cells (SRB assay); assay type: cell-based; details: Homo sapiens, Huh-7, 72 hours, GI50, read-out: IC50 HUH7 Cell Line
Method: Test Example 2: Measuring Inhibitory Effect of FGFR Inhibitor Using Cell Line
The test was carried out for identifying a proliferation inhibitory effect of the compound of the present invention for HUH7 cells. HUH7 cell lines were counted and 5.0×10^3 cells were inoculated per well in a 96 well plate. After the innoculation, the cells were cultured for 24 hours in a 37 □ and 5% carbon dioxide (CO2) incubator. On the next day, the synthesized compounds were each diluted and prepared. The diluted compounds were introduced to the cell lines inoculated the previous day by concentrations, and reacted for 72 hours in a 37 □ and 5% carbon dioxide (CO2) incubator. However, to a positive control to which the compound was not added, 0.1% dimethyl sulfoxide (DMSO) diluted with a medium was introduced. To a negative control plate, a trichloroacetic acid (TCA) solution was introduced, and fixed at 4 □. After reacting for 72 hours, the medium including the compound was removed, a TCA solution was added thereto, and the cells were fixed for 30 minutes to 60 minutes at 4 □. The TCA solution was discarded, the plate was washed off with distilled water and then dried in the air. A 0.4% sulforhodamin B (SRB) solution was added to the plate and dyed for 10 minutes at room temperature. The plate was washed off with tap water including a 1% acetic acid solution, and then dried in the air. A 10 mM Trizma base solution was added to dissolve the solid SRB. Using a microplate reader, optical density (O.D. value) was measured at 540 nm. A GI50 value of each of the compounds was calculated using GraphPad Prism V6.0 Software.

Chain of FGFR4 (P22455 22-802): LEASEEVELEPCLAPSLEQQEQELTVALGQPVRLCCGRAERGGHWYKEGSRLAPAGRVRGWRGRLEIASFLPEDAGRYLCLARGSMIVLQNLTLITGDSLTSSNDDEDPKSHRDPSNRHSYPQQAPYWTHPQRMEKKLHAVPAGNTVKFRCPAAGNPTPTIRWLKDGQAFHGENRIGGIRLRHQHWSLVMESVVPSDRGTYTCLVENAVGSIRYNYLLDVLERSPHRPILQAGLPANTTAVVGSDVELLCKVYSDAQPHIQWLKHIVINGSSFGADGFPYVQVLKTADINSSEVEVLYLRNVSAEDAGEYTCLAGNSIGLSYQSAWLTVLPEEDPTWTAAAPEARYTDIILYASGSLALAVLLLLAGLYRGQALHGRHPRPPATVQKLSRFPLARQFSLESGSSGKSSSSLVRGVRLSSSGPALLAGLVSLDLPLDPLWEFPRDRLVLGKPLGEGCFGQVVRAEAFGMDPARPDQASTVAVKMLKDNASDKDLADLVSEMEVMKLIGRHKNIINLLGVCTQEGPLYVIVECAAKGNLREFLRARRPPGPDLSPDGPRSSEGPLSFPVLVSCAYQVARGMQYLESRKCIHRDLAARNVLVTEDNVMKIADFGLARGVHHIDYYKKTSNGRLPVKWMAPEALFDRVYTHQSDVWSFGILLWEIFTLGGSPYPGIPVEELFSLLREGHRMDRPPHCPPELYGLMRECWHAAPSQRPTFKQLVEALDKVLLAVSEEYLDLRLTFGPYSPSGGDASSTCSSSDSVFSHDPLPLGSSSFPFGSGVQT

SMILES: C=CC(=O)Nc1cc(N2CCOCC2)ccc1Nc1cc2c(cn1)cc(-c1c(Cl)c(OC)cc(OC)c1Cl)c1nccn12 [Synthesis Example 83, N-(2-((4-(2,6-dichloro-3,5-dimethoxyphenyl)imidazo[1,2-a][1,6]naphthyridin-8-yl)amino)-5-morpholinophenyl)acrylamide]
IC50 (FGFR4): < 50 nM
IC50 (FGFR1): < 50 nM
IC50 (HUH7 cells): < 50 nM

SMILES: C=CC(=O)Nc1cc(N2CCN(CC)CC2)ccc1Nc1ncc2cc(-c3c(Cl)c(OC)cc(OC)c3Cl)c3nccn3c2n1 [compound 31]
IC50 (FGFR4): < 50 nM
IC50 (HUH7 cells): < 50 nM

SMILES: C=CC(=O)Nc1cc(N2CCOCC2)ccc1Nc1ncc2cc(-c3c(Cl)c(OC)cc(OC)c3Cl)c3nccn3c2n1 [compound 32]
IC50 (FGFR4): < 50 nM
IC50 (HUH7 cells): < 50 nM

SMILES: C=CC(=O)Nc1cc(N2CCN(S(C)(=O)=O)CC2)ccc1Nc1ncc2cc(-c3c(Cl)c(OC)cc(OC)c3Cl)c3nccn3c2n1 [compound 35]
IC50 (FGFR4): < 50 nM
IC50 (FGFR1): < 50 nM
IC50 (HUH7 cells): < 50 nM

SMILES: C=CC(=O)Nc1cc(N2CCS(=O)(=O)CC2)ccc1Nc1ncc2cc(-c3c(Cl)c(OC)cc(OC)c3Cl)c3nccn3c2n1 [compound 36]
IC50 (FGFR4): < 50 nM
IC50 (FGFR1): < 50 nM
IC50 (HUH7 cells): < 50 nM

SMILES: C=CC(=O)Nc1cc(N2C[C@@H](C)O[C@@H](C)C2)ccc1Nc1ncc2cc(-c3c(Cl)c(OC)cc(OC)c3Cl)c3nccn3c2n1 [compound 38]
IC50 (FGFR4): < 50 nM
IC50 (FGFR1): < 50 nM
IC50 (HUH7 cells): < 50 nM

SMILES: C=CC(=O)Nc1cc(N2CCNCC2)ccc1Nc1ncc2cc(-c3c(Cl)c(OC)cc(OC)c3Cl)c3nccn3c2n1 [compound 39]
IC50 (FGFR4): < 50 nM
IC50 (FGFR1): < 50 nM
IC50 (HUH7 cells): < 50 nM

SMILES: C=CC(=O)Nc1cc(N2CC[C@H](N(C)C)C2)ccc1Nc1ncc2cc(-c3c(Cl)c(OC)cc(OC)c3Cl)c3nccn3c2n1 [compound 48]
IC50 (FGFR4): < 50 nM
IC50 (FGFR1): < 50 nM
IC50 (HUH7 cells): < 50 nM

SMILES: C=CC(=O)Nc1cc(N2CCN(C)CC2)ccc1Nc1ncc2cc(-c3c(Cl)c(OC)cc(OC)c3Cl)c3nccn3c2n1 [compound 52]
IC50 (FGFR4): < 50 nM
IC50 (FGFR1): < 50 nM
IC50 (HUH7 cells): < 50 nM

SMILES: C=CC(=O)Nc1cc(O[C@@H]2CCOC2)ccc1Nc1ncc2cc(-c3c(Cl)c(OC)cc(OC)c3Cl)c3nccn3c2n1 [compound 53]
IC50 (FGFR4): < 50 nM
IC50 (HUH7 cells): < 50 nM

SMILES: C=CC(=O)Nc1cc(OC2CCCC2)ccc1Nc1ncc2cc(-c3c(Cl)c(OC)cc(OC)c3Cl)c3nccn3c2n1 [compound 54]
IC50 (FGFR4): 50 to 500 nM
IC50 (FGFR1): > 500 nM
IC50 (HUH7 cells): 50 to 500 nM

SMILES: C=CC(=O)Nc1cc(F)c(F)cc1Nc1ncc2cc(-c3c(F)c(OC)cc(OC)c3F)c3nccn3c2n1 [compound 77]
IC50 (HUH7 cells): 50 to 500 nM

SMILES: C=CC(=O)Nc1ccc(F)c(F)c1Nc1ncc2cc(-c3c(F)c(OC)cc(OC)c3F)c3nccn3c2n1 [compound 78]
IC50 (HUH7 cells): 50 to 500 nM

SMILES: COc1cc(OC)c(Cl)c(-c2cc3cnc(-c4cncc(N5CCOCC5)c4)nc3n3ccnc23)c1Cl [compound 81]
IC50 (HUH7 cells): > 500 nM

SMILES: C=CC(=O)Nc1cc(-c2ncc3cc(-c4c(Cl)c(OC)cc(OC)c4Cl)c4nccn4c3n2)cc(N2CCOCC2)c1 [compound 82]
IC50 (HUH7 cells): > 500 nM

SMILES: C=CC(=O)Nc1cc(N2C[C@@H](C)O[C@@H](C)C2)ccc1Nc1cc2c(cn1)cc(-c1c(Cl)c(OC)cc(OC)c1Cl)c1nccn12 [compound 84]
IC50 (HUH7 cells): < 50 nM

SMILES: C=CC(=O)Nc1cc(N2CCN(CC)CC2)ccc1Nc1cc2c(cn1)cc(-c1c(Cl)c(OC)cc(OC)c1Cl)c1nccn12 [compound 85]
IC50 (FGFR4): < 50 nM
IC50 (FGFR1): < 50 nM
IC50 (HUH7 cells): < 50 nM

SMILES: C=CC(=O)Nc1cc(N2CCOCC2)cnc1Nc1cc2c(cn1)cc(-c1c(Cl)c(OC)cc(OC)c1Cl)c1nccn12 [compound 86]
IC50 (HUH7 cells): < 50 nM

SMILES: C=CC(=O)Nc1cn(C)nc1Nc1cc2c(cn1)cc(-c1c(Cl)c(OC)cc(OC)c1Cl)c1nccn12 [compound 87]
IC50 (HUH7 cells): < 50 nM

The remaining lines, values ahead:

IC50 (FGFR4): < 50 nM
IC50 (FGFR1): > 500 nM
IC50 (HUH7 cells): < 50 nM
SMILES: C=CC(=O)Nc1cccc(F)c1Nc1ncc2cc(-c3c(F)c(OC)cc(OC)c3F)c3nccn3c2n1 [Synthesis Example 72, N-(2-((6-(2,6-difluoro-3,5-dimethoxyphenyl)imidazo[1′,2′:1,6]pyrido[2,3-d]pyrimidin-2-yl)amino)-3-fluorophenyl)acrylamide]

IC50 (FGFR4): < 50 nM
IC50 (FGFR1): > 500 nM
IC50 (HUH7 cells): 50 to 500 nM
SMILES: C=CC(=O)Nc1cccc(C)c1Nc1ncc2cc(-c3c(Cl)c(OC)cc(OC)c3Cl)c3nccn3c2n1 [compound 9]

IC50 (FGFR4): < 50 nM
IC50 (FGFR1): 50 to 500 nM
IC50 (HUH7 cells): < 50 nM
SMILES: C=CC(=O)Nc1cccc(F)c1Nc1ncc2cc(-c3c(Cl)c(OC)cc(OC)c3Cl)c3nccn3c2n1 [compound 10]

IC50 (FGFR4): < 50 nM
IC50 (FGFR1): 50 to 500 nM
IC50 (HUH7 cells): 50 to 500 nM
SMILES: C=CC(=O)Nc1cccc(OC)c1Nc1ncc2cc(-c3c(Cl)c(OC)cc(OC)c3Cl)c3nccn3c2n1 [compound 11]

IC50 (FGFR4): < 50 nM
IC50 (FGFR1): < 50 nM
IC50 (HUH7 cells): 50 to 500 nM
SMILES: C=CC(=O)Nc1cc(S(C)(=O)=O)ccc1Nc1ncc2cc(-c3c(Cl)c(OC)cc(OC)c3Cl)c3nccn3c2n1 [compound 18]

IC50 (FGFR4): < 50 nM
IC50 (FGFR1): < 50 nM
IC50 (HUH7 cells): < 50 nM
SMILES: C=CC(=O)Nc1cc(N(C)CCOC)ccc1Nc1ncc2cc(-c3c(Cl)c(OC)cc(OC)c3Cl)c3nccn3c2n1 [compound 25]

IC50 (FGFR4): < 50 nM
IC50 (FGFR1): < 50 nM
IC50 (HUH7 cells): < 50 nM
SMILES: C=CC(=O)Nc1cc(OCCOC)ccc1Nc1ncc2cc(-c3c(Cl)c(OC)cc(OC)c3Cl)c3nccn3c2n1 [compound 29]

IC50 (FGFR4): < 50 nM
IC50 (FGFR1): < 50 nM
IC50 (HUH7 cells): < 50 nM
SMILES: C=CC(=O)Nc1cc(N2CC(OC)C2)ccc1Nc1ncc2cc(-c3c(Cl)c(OC)cc(OC)c3Cl)c3nccn3c2n1 [compound 37]

IC50 (FGFR4): 50 to 500 nM
IC50 (FGFR1): > 500 nM
IC50 (HUH7 cells): 50 to 500 nM
SMILES: C=CC(=O)Nc1cc(C)cc(C)c1Nc1ncc2cc(-c3c(Cl)c(OC)cc(OC)c3Cl)c3nccn3c2n1 [compound 58]

IC50 (FGFR4): < 50 nM
IC50 (FGFR1): < 50 nM
IC50 (HUH7 cells): < 50 nM
SMILES: C=CC(=O)Nc1cc(N2CCOCC2)c(C)cc1Nc1ncc2cc(-c3c(Cl)c(OC)cc(OC)c3Cl)c3nccn3c2n1 [compound 61]

IC50 (FGFR4): < 50 nM
IC50 (FGFR1): 50 to 500 nM
IC50 (HUH7 cells): 50 to 500 nM
SMILES: C=CC(=O)Nc1cc(N2CCOCC2)cc(C)c1Nc1ncc2cc(-c3c(Cl)c(OC)cc(OC)c3Cl)c3nccn3c2n1 [compound 63]

IC50 (HUH7 cells): 50 to 500 nM
SMILES: C=CC(=O)Nc1cccc(Cl)c1Nc1ncc2cc(-c3c(F)c(OC)cc(OC)c3F)c3nccn3c2n1 [compound 79]
